Source: patent publication US20180208563A1, “THERMOD[…] CRYSTAL MODIFICATION OF 2-CHLORO-3-(METHYLSULFANYL)-N-(1-METHYL-1H-TETRAZOL-5-YL)-4-(TRIFLUOROMETHYL)BENZAMIDE” (BAYER CROPSCIENCE AKTIENGESELLSCHAFT, priority 2015, published 2018)

How the values were obtained:
[1] = Testing in practice of suspension formulations (crystal growth); format: physicochemical; conditions: suspension formulations with finely ground solid benzamide; spontaneously or over a longer period
Source text: The benzamide known for example from WO 2012/028579 A1 (example No. 4-638 in table 4 therein) has herbicidal properties and is suitable for the production of crop protection compositions which can be employed for weed control. However, it has been shown that the benzamide preparable according to the disclosure of WO 2012/028579 A1 is not suitable for the production of user-friendly administration forms. User-friendly administration forms are, for example, suspension formulations in which the benzamide is present finely ground in solid form. […] The crystal growth can occur spontaneously or over a longer period and cannot be predicted.

[2] = Stability tests: storage of an oil dispersion; format: physicochemical; conditions: after several weeks of storage, compared to an oil dispersion of the benzamide prepared according to WO 2012/028579 A1

| SMILES | crystal growth, clumping and precipitation in suspension formulations [1] | signs of clumping and precipitation on storage [2] |
| --- | --- | --- |
| CSc1c(C(F)(F)F)ccc(C(=O)Nc2nnnn2C)c1Cl [2-chloro-3-(methylsulfanyl)-N-(1-methyl-1H-tetrazol-5-yl)-4-(trifluoromethyl)benzamide] | crystal growth in suspension formulations and consequently to clumping and precipitation | – |
| CSc1c(C(F)(F)F)ccc(C(=O)Nc2nnnn2C)c1Cl [crystal modification II, 2-chloro-3-(methylsulfanyl)-N-(1-methyl-1H-tetrazol-5-yl)-4-(trifluoromethyl)benzamide] | – | no signs of clumping and precipitation |
